Reference: patent US7786175B2, “Anti-atherosclerosis composition containing carotenoids and method for inhibiting LDL oxidation” (Lycored Natural Products, priority 2001, dated 2010)

Key:
LDL [1] = assay: Copper ion-induced LDL oxidation, TBARS assay; format: biochemical; settings: for effect on LDL oxidation (TBARS), in words: single compounds at low concentration mimicking Lyc-O-Mato: lycopene 10 μg/ml, vitamin E 2.5 μg/ml, β-carotene 0.4 μg/ml
Experimental: (§1) All studied compounds were dissolved in THF to a stock solution of 1 mg/ml. LDL was dialyzed for 24 hours against phosphate buffered-saline (PBS) prior to its oxidation to remove any EDTA that can interfere with the oxidation. LDL (100 μg protein/ml), was incubated in the absence (Control) or presence of increasing concentrations of each one of the studied compounds, as well as, in various combinations including 2, 3 or the 4 constituents at the desired natural distribution. LDL oxidation was induced by the addition of 5 μM of CuSO4, for 2 hours at 37° C. LDL oxidation was terminated by adding 1 mM Na2 EDTA and immediate refrigeration at 4° C. The extent of LDL oxidation was then determined by measuring the amount of thiobarbituric acid reactive substances (TBARS) and of lipid peroxides (PD) formed. Control LDL was supplemented with only THF.
(§2) LDL (100 μg of protein/mL) was pre-incubated for 30 minutes at 37° C. with increasing concentrations of crystalline pure lycopene, or with tomato oleoresin (at equivalent lycopene concentrations), followed by a further incubation for 2 hours at 37° C. in the presence of 5 μmol/L of CuSO4. LDL oxidation was measured by the TBARS (A) or by the lipid peroxides (B) assays respectively. Results are given as mean±SD (n=3). Addition of increasing concentrations of lycopene inhibited copper ion-induced LDL oxidation moderately, in a dose-dependent manner.

LDL [2] = assay: Copper ion-induced LDL oxidation, lipid peroxides assay; format: biochemical; settings: for effect on LDL oxidation (lipid peroxides), in words: single compounds at low concentration mimicking Lyc-O-Mato: lycopene 10 μg/ml, vitamin E 2.5 μg/ml, β-carotene 0.4 μg/ml
Experimental: as §1, §2

[3] = 50 μmol/L of lycopene, LDL 100 μg of protein/mL, 5 μmol/L CuSO4, 2 hours at 37° C.

Compound | maximal inhibition in TBARS formation (LDL [1]; [3]) | effect on LDL oxidation (TBARS), in words (LDL [1]) | maximal inhibition in lipid peroxides formation (LDL [2]; [3]) | effect on LDL oxidation (lipid peroxides), in words (LDL [2]) | effect on LDL oxidation, in words (LDL [1]; Example 5: β-carotene alone or in combination with vitamin E)
CC(C)=CCC/C(C)=C/C=C/C(C)=C/C=C/C(C)=C/C=C/C=C(C)/C=C/C=C(C)/C=C/C=C(\C)CCC=C(C)C [lycopene] | 22% | did not significantly affect LDL oxidation | 27% | did not significantly affect LDL oxidation | –
CC1=C(/C=C/C(C)=C/C=C/C(C)=C/C=C/C=C(C)/C=C/C=C(C)/C=C/C2=C(C)CCCC2(C)C)C(C)(C)CCC1 [β-carotene] | – | did not significantly affect LDL oxidation | – | did not significantly affect LDL oxidation | did not affect at all LDL oxidation
vitamin E | – | did not significantly affect LDL oxidation | – | did not significantly affect LDL oxidation | –
